The values below come from paper PMC9511481 (Journal of Medicinal Chemistry, 2022).

Experiment [1] deals with T1, 5-HT2AR (Homo sapiens, UniProt P28223).
T1 construct: expressed in transfected cells; host or cells: HEK 293T (transient transfection)
Description: cell-based. In kind it is cell-based.
Target sequence in this assay (P28223 whole entry): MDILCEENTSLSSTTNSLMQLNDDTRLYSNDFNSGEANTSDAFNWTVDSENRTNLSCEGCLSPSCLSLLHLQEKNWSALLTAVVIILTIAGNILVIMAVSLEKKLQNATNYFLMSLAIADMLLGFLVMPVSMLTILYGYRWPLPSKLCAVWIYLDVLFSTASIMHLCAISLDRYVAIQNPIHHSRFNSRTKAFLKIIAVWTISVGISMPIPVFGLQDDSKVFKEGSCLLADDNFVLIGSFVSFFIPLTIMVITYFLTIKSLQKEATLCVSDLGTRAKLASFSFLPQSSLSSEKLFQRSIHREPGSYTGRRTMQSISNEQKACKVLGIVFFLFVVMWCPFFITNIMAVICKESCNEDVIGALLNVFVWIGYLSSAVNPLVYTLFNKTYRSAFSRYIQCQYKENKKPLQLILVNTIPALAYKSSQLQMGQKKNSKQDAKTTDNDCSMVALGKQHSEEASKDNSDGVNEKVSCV

The target of experiment [2] is T1, 5-HT2AR. Description: cell-based. It counts as cell-based. Conditions: for Emax: HEK-293T, read-out: β-arr2 Emax (%) [CI].
Target sequence in this assay (P32121 whole entry): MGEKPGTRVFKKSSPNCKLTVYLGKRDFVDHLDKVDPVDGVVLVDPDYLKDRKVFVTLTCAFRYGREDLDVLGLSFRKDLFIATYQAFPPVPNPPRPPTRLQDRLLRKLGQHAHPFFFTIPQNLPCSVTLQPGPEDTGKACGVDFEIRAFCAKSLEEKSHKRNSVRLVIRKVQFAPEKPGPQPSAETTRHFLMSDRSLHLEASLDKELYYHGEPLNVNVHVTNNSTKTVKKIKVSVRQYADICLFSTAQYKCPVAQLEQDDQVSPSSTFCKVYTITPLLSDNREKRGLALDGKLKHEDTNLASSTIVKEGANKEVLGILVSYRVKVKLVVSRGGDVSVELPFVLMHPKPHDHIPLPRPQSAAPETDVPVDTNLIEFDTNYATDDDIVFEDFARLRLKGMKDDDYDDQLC
Target sequence in this assay (P28223 whole entry): as the sequence (P28223 whole entry) above
The target in experiment [3] is T2, 5-HT2AR S159A-mutated receptor (Homo sapiens, UniProt P28223, S159A).
T2 construct: expressed in transfected cells; host or cells: HEK 293T (transient transfection); mutant made by site-directed mutagenesis of 5-HT2AR-LgBiT
The experiment in a line: cell-based. In kind it is cell-based. As to conditions: for EC50: read-out: β-arr2 EC50 (nM) [CI].
Target sequence in this assay (P28223 whole entry S159A): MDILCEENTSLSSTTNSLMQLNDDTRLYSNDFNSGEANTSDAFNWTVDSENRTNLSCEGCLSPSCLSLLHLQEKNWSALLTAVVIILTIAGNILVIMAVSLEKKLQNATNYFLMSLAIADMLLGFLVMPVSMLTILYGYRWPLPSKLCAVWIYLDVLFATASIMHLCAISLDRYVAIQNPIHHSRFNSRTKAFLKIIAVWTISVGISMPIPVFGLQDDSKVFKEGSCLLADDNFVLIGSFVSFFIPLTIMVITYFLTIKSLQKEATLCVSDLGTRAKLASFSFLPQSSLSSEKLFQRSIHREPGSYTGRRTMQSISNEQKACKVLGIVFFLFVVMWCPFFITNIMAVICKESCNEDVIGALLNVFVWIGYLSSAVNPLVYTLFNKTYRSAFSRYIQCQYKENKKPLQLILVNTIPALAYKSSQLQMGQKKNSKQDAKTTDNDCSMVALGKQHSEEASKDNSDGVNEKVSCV
Target sequence in this assay (P32121 whole entry partner): as the sequence (P32121 whole entry) above

Experiment [4] has as its target T1, 5-HT2AR. In kind it is cell-based.
Target sequence in this assay (P28223 whole entry): as the sequence (P28223 whole entry) above
Experiment [5] has as its target T2, 5-HT2AR S159A-mutated receptor. The experiment in a line: cell-based. It counts as cell-based. As to conditions: for Emax: read-out: miniGαq Emax (%) [CI].
Target sequence in this assay (P28223 whole entry S159A): as the sequence (P28223 whole entry S159A) above
The test system of experiment [6] is 5-HT2AR S159A-mutated receptor. The experiment in a line: cell-based. It counts as cell-based, human.
Experiment [7] has as its system 5-HT2AR S159A-mutated receptor. The experiment in a line: Bias factor (βarr2 vs miniGαq recruitment), intrinsic relative activity approach, S159A mutated 5-HT2AR. Conditions: 5-HT2A-S159A; for Alternative β-factor: from the combined EC50 and Emax values; for β-factor: average of three experiments. It counts as cell-based, human.
Description: The resulting data were analyzed as described before in more detail.[55] In brief, the obtained time–luminescence profiles are corrected for interwell variability and used for the calculation of the area under the curve (AUC), from which the AUC of the corresponding solvent control is subtracted. Data are then normalized using GraphPad Prism software (San Diego, CA), where the maximal response of the reference agonist is arbitrarily set at 100%. After pooling the data of the individual experiments, the potency and efficacy values are calculated in GraphPad Prism through three parametric nonlinear regression analysis. To quantify the tendency of the measured substances toward preferentially inducing one pathway or the other, bias factors are calculated via the “intrinsic relative activity approach.[56],[57] In this approach, an RAi value is calculated for each substance in each of the measured assays, relative to a reference agonist, using the following formula [drawing 1] The obtained values for the respective pathways are then combined into a bias factor, βi [drawing 2] This formula implies that the value of βi for the reference agonist is 0. A positive bias factor indicates a preference toward the recruitment of βarr2 over miniGαq, compared to the respective reference agonist. A negative bias factor then points to a relative preference toward the recruitment of miniGαq over βarr2. To assess whether the obtained bias factors are statistically significant from 0, a Kruskal–Wallis analysis (which is the nonparametric counterpart of one-way analysis of variance (ANOVA), selected a priori to avoid presumptuous conclusions) with post hoc Dunn’s multiple comparison was carried out in GraphPad Prism. To qualitatively visualize the possible preference of a certain substance towards recruiting either one cytosolic protein or the other, bias plots were generated via GraphPad Prism. To this end, the normalized AUC values obtained in the βarr2 assay are plotted on the x-axis, and those obtained in the miniGαq assay are plotted on the y-axis. On each plot, both the respective reference agonist and one substance of interest are plotted, and a curve is fitted through the centered second-order (quadratic) polynomial fitting.[58]
The subject of experiment [8] is 5-HT2AR. Conditions: 5-HT2AR S159A vs WT; ref 52 (Kim et al.); cited from earlier work.
In experiment [9] the target is T1, 5-HT2AR. Details: method as in PMID 32998000. As to conditions: wild-type 5-HT2AR; previously reported values; cited from earlier work.
Target sequence in this assay (P28223 whole entry): as the sequence (P28223 whole entry) above
The target in experiment [10] is T1, 5-HT2AR. Also on record: method as in PMID 32998000. As to conditions: wild-type 5-HT2AR; previously reported values; cited from earlier work. This is another data set of the same source.
Target sequence in this assay (P32121 whole entry): as the sequence (P32121 whole entry) above
Target sequence in this assay (P28223 whole entry): as the sequence (P28223 whole entry) above
The next experiment has as its system 5-HT2AR over 5-HT2CR. Conditions: cited from earlier work.
For experiment [11], the system named is 5-HT2AR. Details: method as in PMID 35084960. Conditions: partial agonist with bias toward βarr2 over Gαq-γ9, reference 5-HT; cited from earlier work.
[12] abbreviates: read-out: miniGαq EC50 (nM) [CI].
The mark [13] stands for this setting: read-out: β-arr2 EC50 (nM) [CI].

As usually defined, the EC50 is the concentration giving half of the maximal effect. One may read the Emax as the maximal effect, on the per cent scale that the assay sets.

Where “and” joins values, the source holds several entries; their conditions need not be identical. Equal entries are not always repeated. Structures can show the parent of a compound that is named as a salt. Where two headings read alike, the source gives them in different places.

For `COc1cc(CCNC2COc3ccccc32)c(OC)cc1Br` (racemic) [(±)-4c, (±)-N-(4-Bromo-2,5-dimethoxyphenethyl)-2,3-dihydrobenzofuran-3-amine Hydrochloride], the EC50 on 5-HT2AR [1] was 24.5 nM; at 5-HT2AR [1] (setting [12]) it was 23 nM; at 5-HT2AR [2] (β-arr2 EC50 (nM) [CI]), 28.6 nM and 28.7 nM. Moreover, at 5-HT2AR [2], the “β-arr2 Emax (%) [CI]” value stood at 85.5%. Moreover, the Emax at 5-HT2AR [2] amounted to 96.6%.
In the case of `COc1cc(CCNC2CCOc3ccccc32)c(OC)cc1Br` (racemic) [(±)-4d, (±)-N-(4-Bromo-2,5-dimethoxyphenethyl)chroman-4-amine Hydrochloride], the EC50 on 5-HT2AR [1] (setting [12]) was 174 nM and 168 nM. At 5-HT2AR [2], the “β-arr2 Emax (%) [CI]” value is 108% and the Emax turned out to be 121%. Moreover, the EC50 at 5-HT2AR [2] (setting [13]) is 132 nM and 134 nM.
Consider `COc1cc(CCNC2COc3ccccc32)c(OC)cc1C#N` (racemic) [(±)-6f, (±)-4-(2-((2,3-Dihydrobenzofuran-3-yl)amino)ethyl)-2,5-dimethoxybenzonitrile Hydrochloride], for which, in experiment [3], the “Reduction of agonist potency at 5-HT2AR S159A compared to WT, βarr2 recruitment assay” value (“Reduction … βarr2 recruitment assay” below) is ~10 fold; the “β-arr2 Emax (%) [CI]” value is 90.8 [81.9–101] % and 118%; the EC50 is 1020 nM and 1030 nM. Also, at 5-HT2AR [4], the “Alternative β-factor” value was 1.420 and 0.711; the “Bias judged from the bias plot, relative to LSD” value is recorded as “highly biased for βarr2 recruitment”; the “Bias judged from the bias plot, relative to serotonin” value was “strong preference toward βarr2 recruitment”; the “Difference in potency between the β-arr2 and miniGαq assays” value is 6 fold. In addition, the EC50 at 5-HT2AR [1] (setting [12]) is 631 nM and 608 nM. In experiment [5] (setting [12]), the concentration giving a half-maximal response (EC50) was 1650 nM. In addition, the “Reduction of agonist potency at 5-HT2AR S159A compared to WT, miniGαq recruitment assay” value (“Reduction … miniGαq recruitment assay” for short) in experiment [6] came to 2.6 fold. Further, the “Alternative β-factor” value in [7] (referenced with 5-HT) came to 0.486. The “Alternative β-factor” value in [7] (referenced with LSD) is 1.010. For the same compound, on 5-HT2AR [2], the “β-arr2 Emax (%) [CI]” value is reported as 76.0% and the Emax came out at 82.9%. Further, the EC50 at 5-HT2AR [2] (setting [13]) was determined as 108 nM.
As for `COc1cc(CCNCc2cccc(O)c2)c(OC)cc1Br` [4a, 3-(((4-Bromo-2,5-dimethoxyphenethyl)amino)methyl)phenol Hydrochloride], the “Reduction … βarr2 recruitment assay” value in [3] is “approximately 15 fold”. Further, the “β-arr2 Emax (%) [CI]” value is 89.8 [75.8–108] % and 110% in experiment [3]; 98.9% at 5-HT2AR [2]. Besides, the EC50 in experiment [3] is 172 nM and 175 nM; on 5-HT2AR [1] (setting [12]) it was 48.8 nM and 46.9 nM; in experiment [5] (setting [12]), 154 nM and 156 nM; at 5-HT2AR [2] (setting [13]), 11.1 nM. In addition, the “miniGαq Emax (%) [CI]” value in experiment [5] worked out at 36.8%. The Emax in [5] is 21%; at 5-HT2AR [2], 112%. For the same compound, the “Reduction … miniGαq recruitment assay” value in [6] is ~3 fold. Further, the “Alternative β-factor” value was 0.096 in [7] (referenced with 5-HT) and 0.566 in [7] (referenced with LSD).
Take `COc1cccc(CNCCc2cc(OC)c(Br)cc2OC)c1` [4b, 2-(4-Bromo-2,5-dimethoxyphenyl)-N-(3-methoxybenzyl)ethan-1-amine Hydrochloride]: in experiment [3], the “Reduction … βarr2 recruitment assay” value is listed as 7 fold. Besides, the “β-arr2 Emax (%) [CI]” value in experiment [3] is 106 [97.5–114] % and 130%; at 5-HT2AR [2], 100%. In addition, the concentration for a half-maximal effect (EC50) in experiment [3] is 81.9 nM and 80.4 nM; at 5-HT2AR [1] (setting [12]) it was 44.4 nM and 43.3 nM; in [5] it was 118 nM; in experiment [5] (setting [12]), 112 nM; on 5-HT2AR [2] (setting [13]), 11.1 nM. Further, the “miniGαq Emax (%) [CI]” value in experiment [5] is 44.7 [36.9–53.9] % and 81.0%. The “Alternative β-factor” value in experiment [7] (referenced with 5-HT) is reported as 0.043; in experiment [7] (referenced with LSD) it was 0.494. The β-factor is given as 0.565 in experiment [7] (relative to LSD) and 0.102 in [7] (relative to serotonin (5-HT)). The Emax on 5-HT2AR [2] turned out to be 113%.
Take `NCCc1c[nH]c2ccc(O)cc12` [5-HT, serotonin, reference compound]: in the experiment on 5-HT2AR [8], the “Change of efficacy with the S159A mutation, Gαq-dissociation BRET assay” value is reported as “remained roughly unchanged” and the “Decrease in potency with the S159A mutation, Gαq-dissociation BRET assay” value is 157 fold. Moreover, in experiment [3], the “Drop in efficacy in the S159A-mutated 5-HT2AR, β-arr2” value is given as 33%. In [6], the “Drop in efficacy in the S159A-mutated 5-HT2AR, miniGαq” value worked out at 173% and the “Reduction … miniGαq recruitment assay” value worked out at 13 fold. In [7] (relative to LSD), this compound returned a β-factor of 0.550. In [7] (relative to serotonin (5-HT)), the β-factor turned out to be 0.
Regarding `COc1cc(CCNCc2ccccc2OC)c(OC)cc1C#N` [6b, 2,5-Dimethoxy-4-(2-((2-methoxybenzyl)amino)ethyl)benzonitrile Hydrochloride], the EC50 is 6.7 nM and 6.71 nM and 6.53 nM on 5-HT2AR [1] (setting [12]); 1.9 nM and 1.93 nM and 1.94 nM on 5-HT2AR [2] (setting [13]). For the same compound, the “β-arr2 Emax (%) [CI]” value on 5-HT2AR [2] is listed as 148%. For the same compound, the Emax on 5-HT2AR [2] was found to be 161%.
`COc1cc(CCNCc2ccccc2F)c(OC)cc1C#N` [6c, 4-(2-((2-Fluorobenzyl)amino)ethyl)-2,5-dimethoxybenzonitrile Hydrochloride]: in experiment [3], the “Reduction … βarr2 recruitment assay” value was found to be 12 fold. The “β-arr2 Emax (%) [CI]” value in experiment [3] is 86.6 [81.5–92.0] % and 113%; on 5-HT2AR [2] it was 105%. Also, the EC50 was 661 nM and 645 nM in [3]; 168 nM and 164 nM at 5-HT2AR [1] (setting [12]); 899 nM in experiment [5]; 1130 nM in [5] (setting [12]); 53.2 nM and 53.3 nM on 5-HT2AR [2] (setting [13]). The “Reduction … miniGαq recruitment assay” value in experiment [6] was 7 fold. Further, the “Alternative β-factor” value in experiment [7] (referenced with 5-HT) is recorded as 0.237; in [7] (referenced with LSD), 0.842. Moreover, the values for the β-factor in [7] (relative to LSD) and in [7] (relative to serotonin (5-HT)) were 0.731 and 0.186, respectively. Also, at 5-HT2AR [2], the maximal response (Emax) came out at 114%.
As to `COc1cc(CCNCc2cccc3c2OCO3)c(OC)cc1C#N` [6d, 4-(2-((Benzo[d][1,3]dioxol-4-ylmethyl)amino)ethyl)-2,5-dimethoxybenzonitrile Hydrochloride], the EC50 on 5-HT2AR [1] (setting [12]) is 45.1 nM and 47.3 nM; at 5-HT2AR [2] (setting [13]) it was 17 nM and 17.1 nM. Moreover, the “β-arr2 Emax (%) [CI]” value on 5-HT2AR [2] is 106%. Besides, on 5-HT2AR [2], the maximal effect (Emax) worked out at 114%.
For `COc1cc(CCNCc2cccc(O)c2)c(OC)cc1C#N` [6e, 4-(2-((3-Hydroxybenzyl)amino)ethyl)-2,5-dimethoxybenzonitrile Hydrochloride], the “Reduction … βarr2 recruitment assay” value in experiment [3] was ~10 fold. For the same compound, the “β-arr2 Emax (%) [CI]” value is recorded as 84.1% in experiment [3] and 97.5% at 5-HT2AR [2]. Moreover, the EC50 is 939 nM and 938 nM in experiment [3]; 301 nM and 299 nM on 5-HT2AR [1] (setting [12]); 2060 nM in experiment [5] (setting [12]); 84.5 nM at 5-HT2AR [2] (setting [13]). In addition, the Emax in experiment [3] (read-out: β-arr2 Emax (%) [CI]) is 68.2%; in experiment [5] it was 12.9%; on 5-HT2AR [2], 106%. In [5], the “miniGαq Emax (%) [CI]” value was 22.9%. For the same compound, the “Reduction … miniGαq recruitment assay” value in experiment [6] was 6.9 fold. The “Alternative β-factor” value in [7] (referenced with 5-HT) is listed as 0.577; in experiment [7] (referenced with LSD) it was 1.050.
As for `COc1cc(CCNCc2ccccc2O)c(OC)cc1I` [25I-NBOH], at 5-HT2AR [9], the “Emax, miniGαq assay” value is on record as 111–160%. Besides, the “Emax, βarr2 assay” value at 5-HT2AR [10] was 135–141%.
`COc1cc(CCNCc2ccccc2OC)c(OC)cc1I` [25I-NBOMe]: the “Emax, miniGαq assay” value on 5-HT2AR [9] is 111–160%. Besides, the “Emax, βarr2 assay” value at 5-HT2AR [10] is 135–141%.
Turning to `COc1cc(CC2CCCC(c3ccccc3OC)N2)c(OC)cc1Br` [(S,S)-DMBMPP], the “Selectivity over 5-HT2CR” value in the experiment with 5-HT2AR over 5-HT2CR is recorded as 124 fold.
In the case of `COc1ccccc1CCCN1CC[C@H]2[C@@H](C1)c1cccc3c1N2CCN3C` [IHCH-7086], the Emax in the experiment on 5-HT2AR [11] is reported as 13%.
Consider `CCN(CC)C(=O)[C@@H]1C=C2c3cccc4[nH]cc(c34)C[C@H]2N(C)C1` [LSD, lysergic acid diethylamide, reference compound], for which the “β-arr2 Emax (%) [CI]” value in experiment [3] is 99.9 [93.7–106] % and 128%; at 5-HT2AR [2] it was 90.7%. The β-factor in experiment [7] (relative to LSD) is 0; in [7] (relative to serotonin (5-HT)) it was -0.533. In addition, at 5-HT2AR [2], the maximal effect (Emax) worked out at 99.7%.
